From patent publication US20180243273A1, “Composition for Intravesical Administration for Treating Bladder Pain” (priority 2017, published 2018)

Experiment: Storage of compositions with/without nitrogen-gassing and ascorbic acid, assay and impurities
Assay type: physicochemical
Conditions: for Assay / Impurities: phosphate buffer
Procedure: A possible beneficial effect of nitrogen-gassing during manufacturing and storage was assessed. Selected compositions were manufactured by dissolution of API via stirring for 24 h and stored after treatment with/without nitrogen at 25° C. or 6° C. for up to 28 days.
The manufactured batches consisted of phosphate buffer and vitamin E TPGS and were compared to compositions containing ascorbic acid 1%, additionally. API was used at 0.01 wt.-%, 0.02 wt.-% or 0.04 w.-%. The compositions were saturated with API, where 10 mg, 20 mg or 40 mg were dissolved in 100 g buffer containing 0.5 wt.-%, wt.-1% or 2 wt.-% vitamin E TPGS, respectively. The compositions were transferred into polystyrene bottles and stored at 25° C. or 6° C. A part of the compositions was treated with nitrogen during manufacturing and gassed with nitrogen prior to sealing (see FIG. 18). The compositions were tested for assay and purity of API after manufacturing, as well as after 7, 14 and 28 days.

[1] = vitamin E TPGS 1%, no Asc., N2 +, API 0.02%, 25° C., t = 28 d
[2] = vitamin E TPGS 1%, no Asc., N2 +, API 0.02%, t = 0
[3] = vitamin E TPGS 1%, no Asc., N2 −, API 0.02%, 6° C., t = 7 d
[4] = vitamin E TPGS 1%, no Asc., N2 −, API 0.02%, 6° C., t = 14 d
[5] = vitamin E TPGS 1%, no Asc., N2 −, API 0.02%, 6° C., t = 28 d
[6] = vitamin E TPGS 1%, no Asc., N2 −, API 0.02%, 25° C., t = 7 d
[7] = vitamin E TPGS 1%, no Asc., N2 −, API 0.02%, 25° C., t = 14 d
[8] = vitamin E TPGS 1%, no Asc., N2 −, API 0.02%, 25° C., t = 28 d
[9] = vitamin E TPGS 1%, no Asc., N2 −, API 0.02%, t = 0
[10] = vitamin E TPGS 2%, Asc. 1%, N2 +, API 0.04%, 6° C., t = 7 d
[11] = vitamin E TPGS 2%, Asc. 1%, N2 +, API 0.04%, 6° C., t = 14 d
[12] = vitamin E TPGS 2%, Asc. 1%, N2 +, API 0.04%, 6° C., t = 28 d
[13] = vitamin E TPGS 2%, Asc. 1%, N2 +, API 0.04%, 25° C., t = 7 d
[14] = vitamin E TPGS 2%, Asc. 1%, N2 +, API 0.04%, 25° C., t = 14 d
[15] = vitamin E TPGS 2%, Asc. 1%, N2 +, API 0.04%, 25° C., t = 28 d
[16] = vitamin E TPGS 2%, Asc. 1%, N2 +, API 0.04%, t = 0
[17] = vitamin E TPGS 2%, Asc. 1%, N2 −, API 0.04%, 6° C., t = 7 d
[18] = vitamin E TPGS 2%, Asc. 1%, N2 −, API 0.04%, 6° C., t = 14 d
[19] = vitamin E TPGS 2%, Asc. 1%, N2 −, API 0.04%, 6° C., t = 28 d
[20] = vitamin E TPGS 2%, Asc. 1%, N2 −, API 0.04%, 25° C., t = 7 d
[21] = vitamin E TPGS 2%, Asc. 1%, N2 −, API 0.04%, 25° C., t = 14 d
[22] = vitamin E TPGS 2%, Asc. 1%, N2 −, API 0.04%, 25° C., t = 28 d
[23] = vitamin E TPGS 2%, Asc. 1%, N2 −, API 0.04%, t = 0
[24] = vitamin E TPGS 2%, no Asc., N2 +, API 0.04%, 6° C., t = 7 d
[25] = vitamin E TPGS 2%, no Asc., N2 +, API 0.04%, 6° C., t = 14 d
[26] = vitamin E TPGS 2%, no Asc., N2 +, API 0.04%, 6° C., t = 28 d
[27] = vitamin E TPGS 2%, no Asc., N2 +, API 0.04%, 25° C., t = 7 d
[28] = vitamin E TPGS 2%, no Asc., N2 +, API 0.04%, 25° C., t = 14 d
[29] = vitamin E TPGS 2%, no Asc., N2 +, API 0.04%, 25° C., t = 28 d
[30] = vitamin E TPGS 2%, no Asc., N2 +, API 0.04%, t = 0
[31] = vitamin E TPGS 2%, no Asc., N2 −, API 0.04%, 6° C., t = 7 d
[32] = vitamin E TPGS 2%, no Asc., N2 −, API 0.04%, 6° C., t = 14 d
[33] = vitamin E TPGS 2%, no Asc., N2 −, API 0.04%, 6° C., t = 28 d
[34] = vitamin E TPGS 2%, no Asc., N2 −, API 0.04%, 25° C., t = 7 d
[35] = vitamin E TPGS 2%, no Asc., N2 −, API 0.04%, 25° C., t = 14 d
[36] = vitamin E TPGS 2%, no Asc., N2 −, API 0.04%, 25° C., t = 28 d
[37] = vitamin E TPGS 2%, no Asc., N2 −, API 0.04%, t = 0

For `CN(C)[C@]1(c2cccc(F)c2)CC[C@]2(CC1)c1[nH]c3ccccc3c1CCN2C(=O)/C=C/c1ccccc1` [API, cis-(E)-4-(3-fluorophenyl)-2′,3′,4′,9′-tetrahydro-N,N-dimethyl-2′-(1-oxo-3-phenyl-2-propenyl)-spiro[cyclohexane-1,1′[1H]-pyrido[3,4-b]indol]-4-amine], the Assay [1] was 93.95 µg/mL, the Impurities [1] was 0.85 % (a/a) and the Assay [2] was 93.15 µg/mL. The Impurities [2] was 0.63 % (a/a), the Assay [3] was 92.96 µg/mL and the Impurities [3] was 0.66 % (a/a). For the same molecule, the Assay [4] was 93.12 µg/mL, the Impurities [4] was 0.82 % (a/a) and the Assay [5] was 93.21 µg/mL. For the same molecule, the Impurities [5] was 1.15 % (a/a), the Assay [6] was 93.12 µg/mL and the Impurities [6] was 0.74 % (a/a). The Assay [7] was 93.69 µg/mL, the Impurities [7] was 1.01 % (a/a) and the Assay [8] was 93.67 µg/mL. For the same molecule, the Impurities [8] was 0.80 % (a/a), the Assay [9] was 92.32 µg/mL and the Impurities [9] was 0.63 % (a/a). For the same molecule, the Assay [10] was 218.73 µg/mL, the Impurities [10] was 0.72 % (a/a) and the Assay [11] was 218.92 µg/mL. The Impurities [11] was 0.95 % (a/a), the Assay [12] was 219.23 µg/mL and the Impurities [12] was 0.68 % (a/a). For the same molecule, the Assay [13] was 209.88 µg/mL, the Impurities [13] was 1.22 % (a/a) and the Assay [14] was 210.66 µg/mL. For the same molecule, the Impurities [14] was 1.08 % (a/a), the Assay [15] was 190.68 µg/mL and the Impurities [15] was 1.54 % (a/a). For the same molecule, the Assay [16] was 217.91 µg/mL, the Impurities [16] was 0.62 % (a/a) and the Assay [17] was 222.15 µg/mL. The Impurities [17] was 0.75 % (a/a), the Assay [18] was 226.12 µg/mL and the Impurities [18] was 0.85 % (a/a). The Assay [19] was 225.09 µg/mL, the Impurities [19] was 0.79 % (a/a) and the Assay [20] was 222.30 µg/mL. The Impurities [20] was 0.92 % (a/a), the Assay [21] was 213.85 µg/mL and the Impurities [21] was 1.58 % (a/a). For the same molecule, the Assay [22] was 197.06 µg/mL, the Impurities [22] was 1.67 % (a/a) and the Assay [23] was 218.96 µg/mL. The Impurities [23] was 0.63 % (a/a), the Assay [24] was 216.81 µg/mL and the Impurities [24] was 0.53 % (a/a). For the same molecule, the Assay [25] was 216.54 µg/mL, the Impurities [25] was 0.71 % (a/a) and the Assay [26] was 216.93 µg/mL. For the same molecule, the Impurities [26] was 0.46 % (a/a), the Assay [27] was 215.81 µg/mL and the Impurities [27] was 0.57 % (a/a). The Assay [28] was 215.34 µg/mL, the Impurities [28] was 0.82 % (a/a) and the Assay [29] was 217.45 µg/mL. For the same molecule, the Impurities [29] was 0.72 % (a/a), the Assay [30] was 214.85 µg/mL and the Impurities [30] was 0.58 % (a/a). For the same molecule, the Assay [31] was 214.61 µg/mL, the Impurities [31] was 0.37 % (a/a) and the Assay [32] was 214.30 µg/mL. For the same molecule, the Impurities [32] was 0.72 % (a/a), the Assay [33] was 214.68 µg/mL and the Impurities [33] was 0.49 % (a/a). For the same molecule, the Assay [34] was 214.19 µg/mL, the Impurities [34] was 0.54 % (a/a) and the Assay [35] was 213.44 µg/mL. For the same molecule, the Impurities [35] was 0.80 % (a/a), the Assay [36] was 215.45 µg/mL and the Impurities [36] was 0.67 % (a/a). The Assay [37] was 212.92 µg/mL, the Impurities [37] was 0.60 % (a/a) and the “sum of all impurities” value (storage temperature of 6° C., all compositions, up to 28 days) was “below 1 % (a/a)”.
